Data reported in ChEMBL document CHEMBL1921763, “Synthesis and SAR of 2-phenoxypyridines as novel c-Jun N-terminal kinase inhibitors” (Bioorg Med Chem Lett, 2011).

What was measured:
[1] = target: Mitogen-activated protein kinase 10 (Homo sapiens, UniProt P53779); experiment: Inhibition of JNK3 using biotinylated-ATF2 as substrate by HTRF assay
[2] = Half life in Sprague-Dawley rat at 1 mg/kg, iv and 2 mg/kg, po; format: ADME, organism-based; conditions: in vivo
[3] = Plasma clearance in Sprague-Dawley rat at 1 mg/kg, iv and 2 mg/kg, po; format: ADME, organism-based
[4] = AUC in Sprague-Dawley rat at 1 mg/kg, iv and 2 mg/kg, po; format: ADME, organism-based; conditions: plasma
[5] = Oral bioavailability in Sprague-Dawley rat at 2 mg/kg; format: ADME, organism-based; conditions: in vivo
[6] = Plasma concentration in C57B16 mouse at 10 mg/kg, ip after 2 hrs; format: ADME, organism-based; parameters: dose 10 mg/kg, route intraperitoneal
[7] = Drug level in C57B16 mouse brain at 10 mg/kg, ip after 2 hrs; format: ADME, organism-based; parameters: dose 10 mg/kg, route intraperitoneal; conditions: read-out: Drug uptake
[8] = target: Mitogen-activated protein kinase 8 (Homo sapiens, UniProt P45983); experiment: Inhibition of JNK1 using biotinylated-ATF2 as substrate by HTRF assay
Chain of Mitogen-activated protein kinase 8 (P45983 whole entry): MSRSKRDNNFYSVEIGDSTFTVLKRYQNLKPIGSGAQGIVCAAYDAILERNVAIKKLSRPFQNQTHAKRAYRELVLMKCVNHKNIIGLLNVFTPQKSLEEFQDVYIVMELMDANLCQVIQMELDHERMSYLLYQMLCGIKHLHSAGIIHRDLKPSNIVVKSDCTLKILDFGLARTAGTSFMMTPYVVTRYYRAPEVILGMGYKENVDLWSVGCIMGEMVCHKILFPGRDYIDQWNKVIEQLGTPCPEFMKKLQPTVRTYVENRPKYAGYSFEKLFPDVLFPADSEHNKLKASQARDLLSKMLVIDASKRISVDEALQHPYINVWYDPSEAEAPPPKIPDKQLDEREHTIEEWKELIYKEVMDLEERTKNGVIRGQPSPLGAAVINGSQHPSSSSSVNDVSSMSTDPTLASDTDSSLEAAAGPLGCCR

Chain of Mitogen-activated protein kinase 10 (P53779 whole entry): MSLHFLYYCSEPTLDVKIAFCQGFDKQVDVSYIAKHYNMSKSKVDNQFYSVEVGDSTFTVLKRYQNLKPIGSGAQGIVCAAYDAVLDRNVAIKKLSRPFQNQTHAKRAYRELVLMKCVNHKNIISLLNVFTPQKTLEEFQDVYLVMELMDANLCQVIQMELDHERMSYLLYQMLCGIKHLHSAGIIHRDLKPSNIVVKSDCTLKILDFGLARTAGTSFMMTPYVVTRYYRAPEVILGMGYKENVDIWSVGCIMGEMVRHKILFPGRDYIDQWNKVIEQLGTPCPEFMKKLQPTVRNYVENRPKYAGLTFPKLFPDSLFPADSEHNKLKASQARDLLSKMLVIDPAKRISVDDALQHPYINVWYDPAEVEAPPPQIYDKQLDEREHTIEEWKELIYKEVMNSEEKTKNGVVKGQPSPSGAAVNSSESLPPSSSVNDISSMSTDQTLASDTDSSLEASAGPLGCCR

Row | Compound | IC50 [1] [nM] | IC50 [8] [nM] | further results
1 | NC(=O)c1ccccc1Nc1cc(Oc2ccc(-n3cncn3)cc2)ncc1C(F)(F)F | 80 |  | half-life [2]: 1 h; clearance [3]: 6 mL/min/kg; AUC [4]: 9.1 µM·h; bioavailability [5]: 73%; concentration at 2 h [6]: 15.7 µM; concentration at 2 h [7]: 2.5 µM
2 | COc1ccc(Oc2cc(Nc3cccc(Cl)c3C(N)=O)c(C(F)(F)F)cn2)cc1 | 2200 |  | 
3 | COc1ccc(Oc2cc(Nc3cccc(OC)c3C(N)=O)c(C(F)(F)F)cn2)cc1 | 2200 |  | 
4 | COc1ccc(Oc2cc(Nc3c(F)cccc3C(N)=O)c(C(F)(F)F)cn2)cc1 | 60 |  | 
5 | COc1ccc(Oc2cc(N(C)c3ccccc3C(N)=O)c(Cl)cn2)cc1 |  | > 20000 | 
6 | COc1ccc(Oc2cc(Nc3ccccc3C(N)=O)c(F)cn2)cc1 | 48 | 26 | 
7 | COc1ccc(Oc2cc(Nc3ccccc3C(N)=O)c(Cl)cn2)cc1 | 15 | 8 | half-life [2]: 1 h; clearance [3]: 13 mL/min/kg; AUC [4]: 6.3 µM·h; bioavailability [5]: 90%; concentration at 2 h [6]: 2.4 µM; concentration at 2 h [7]: 1.8 µM
8 | COc1ccc(Oc2cc(Nc3cc(Cl)ccc3C(N)=O)c(C(F)(F)F)cn2)cc1 | 78 |  | 
9 | COc1ccc(Oc2cc(Nc3cc(F)ccc3C(N)=O)c(C(F)(F)F)cn2)cc1 | 49 |  | 
10 | NC(=O)c1ccccc1Nc1cc(Oc2ccc(-c3cccnc3)cc2)ncc1C(F)(F)F | 72 | 53 | 
11 | NC(=O)c1ccccc1Nc1ccnc(Oc2ccccc2)c1 | 520 | 330 | 
12 | COc1ccc(Oc2cc(Nc3ccc(F)cc3C(N)=O)c(C(F)(F)F)cn2)cc1 | 45 |  | 
13 | COc1ccc(Oc2cc(Nc3c(Cl)cccc3C(N)=O)c(C(F)(F)F)cn2)cc1 | 160 |  | 
14 | COc1ccc(Oc2cc(Nc3ccccc3-c3nnc[nH]3)c(Cl)cn2)cc1 | 140 | 120 | 
15 | CC(C)(C)Oc1ccc(Oc2cc(Nc3ccccc3C(N)=O)c(C(F)(F)F)cn2)cc1 | 27 | 22 | 
16 | COc1ccc(Oc2ncc(Cl)c(Nc3ccccc3C(N)=O)n2)cc1 | 7 | 4 | half-life [2]: 0.5 h; clearance [3]: 22 mL/min/kg; AUC [4]: 1 µM·h; bioavailability [5]: 25%
17 | CNC(=O)c1ccccc1Nc1cc(Oc2ccc(OC)cc2)ncc1Cl | 170 | 930 | 
18 | NC(=O)c1ccccc1Nc1cc(Oc2ccc(N3CCNCC3)cc2)ncc1C(F)(F)F | 34 |  | 
19 | COc1ccc(Oc2cc(Nc3cc(OC)ccc3C(N)=O)c(C(F)(F)F)cn2)cc1 | 17 |  | 
20 | NC(=O)c1ccccc1Nc1ccnc(Oc2ccc(N3CCNCC3)cc2)c1 | 70 | 310 | half-life [2]: 1.5 h; clearance [3]: 38 mL/min/kg; AUC [4]: 0.3 µM·h; bioavailability [5]: 14%
21 | COc1ccc(Oc2cc(Nc3ccc(Cl)cc3C(N)=O)c(C(F)(F)F)cn2)cc1 | 30 |  | 
22 | NC(=O)c1ccccc1Nc1cc(Oc2cccc3ccccc23)ncc1C(F)(F)F | 990 | 650 | 
23 | NC(=O)c1ccccc1Nc1cc(Oc2ccc(OC(F)(F)F)cc2)ncc1C(F)(F)F | 35 | 35 | 

The next lines start with results.

Row | IC50 [1] [nM] | IC50 [8] [nM] | Compound | further results
24 | 3500 | 3200 | COc1ccccc1Oc1cc(Nc2ccccc2C(N)=O)c(C(F)(F)F)cn1 | 
25 | 110 | 35 | CCOc1ccc(Oc2cc(Nc3ccccc3C(N)=O)c(C(F)(F)F)cn2)cc1 | 
26 | 320 |  | NC(=O)c1ccccc1Nc1cc(Oc2ccc3ccccc3c2)ncc1C(F)(F)F | 
27 | 380 | 480 | NC(=O)c1ccccc1Nc1cc(Oc2ccc(Br)cc2)ncc1C(F)(F)F | 
28 | 140 | 100 | CCCOc1ccc(Oc2cc(Nc3ccccc3C(N)=O)c(C(F)(F)F)cn2)cc1 | 
29 | 100 | 680 | NC(=O)c1ccccc1Nc1cc(Oc2ccc(Cl)c(Cl)c2)ncc1C(F)(F)F | 
30 | 37 | 27 | COc1ccc(Oc2cc(Nc3ccccc3C(N)=O)c(C(F)(F)F)cn2)cc1 | half-life [2]: 1 h; clearance [3]: 3 mL/min/kg; AUC [4]: 20.1 µM·h; bioavailability [5]: 79%; concentration at 2 h [6]: 10 µM; concentration at 2 h [7]: 5.2 µM
31 | 70 | 38 | COc1cccc(Oc2cc(Nc3ccccc3C(N)=O)c(C(F)(F)F)cn2)c1 | 
32 | 200 | 100 | NC(=O)c1ccccc1Nc1cc(Oc2ccc(F)cc2)ncc1C(F)(F)F | 
33 | 100 | 740 | COc1ccc(Oc2cc(Nc3ccccc3C(N)=O)c(C(F)(F)F)cn2)c(Cl)c1 | 
34 | 48 | 44 | NC(=O)c1ccccc1Nc1cc(Oc2ccc3c(c2)OCO3)ncc1C(F)(F)F | 
35 | 200 |  | NC(=O)c1ccccc1Nc1cc(Oc2cccc(Cl)c2)ncc1C(F)(F)F | 
